Where two headings read alike, the source gives them in different places. Each block holds one molecule with its values, some of them ahead of it. Non-standard residues stand in square brackets, D forms with d. Residues, ends and D or L forms follow the SMILES beside them. NMeF = CN[C@@H](Cc1ccccc1)C(=O)O; 4Pal = N[C@@H](Cc1ccncc1)C(=O)O; NMeD = CN[C@@H](CC(=O)O)C(=O)O; Sar = CNCC(=O)O
Molecular target: Sushi domains (SD1/2) protein
Test: Fluorescence polarization (FP) competition assay with AJAP-1probe, calculated Ki
Assay type: binding
Procedure, shortened: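 Competition against 25 nM TAMRA-labelled peptide probe binding SD1/2, in PBS pH 7.4 with 1% BSA at rt, read at 530/580 nm. IC50 from sigmoidal dose-response fits, at least triplicate; Ki calculated from IC50 using probe Kd from saturation binding.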

[1] = Table 8, Ala-, D-amino acids and N-methylation scans of AJAP-1WT, read-out: Ki (nM) mean ± SEM
[2] = Table 6, elongation and truncation scan of PIANP binding epitope, read-out: Ki (nM) mean ± SEM
[3] = Table 7, Ala-, D-amino acids and N-methylation scans of APPWT, read-out: Ki (nM) mean ± SEM
[4] = Table 13, peptides for affinity maturation, read-out: Ki (nM) mean ± SEM
[5] = Table 11, deep mutational scanning validation variants of AJAP-1WT, read-out: Ki (nM) mean ± SEM

Molecule: CC[C@H](C)[C@H](NC(=O)[C@H](Cc1ccccc1)N(C)C(=O)[C@H](CCC(=O)O)NC(=O)[C@@H](NC(=O)[C@H](CCC(=O)O)NC(C)=O)[C@@H](C)O)C(=O)N[C@@H](C)C(=O)N[C@@H](Cc1c[nH]c2ccccc12)C(=O)NCC(=O)N1CCC[C@H]1C(=O)N[C@H](C(=O)NCC(=O)N[C@@H](CC(=O)O)C(=O)N[C@@H](CCC(=O)O)C(=O)N[C@@H](CC(=O)O)C(N)=O)[C@@H](C)O [ETE(N-Me-F)IAWGPTGDED] (Ac-ETE[NMeF]IAWGPTGDED-NH2)
- Ki [1]: 252 ± 5 nM

Molecule: CC[C@H](C)[C@H](NC(=O)[C@H](Cc1c[nH]c2ccccc12)NC(=O)[C@H](CC(=O)O)NC(=O)[C@H](CC(=O)O)NC(=O)[C@H](CC(=O)O)NC(=O)[C@H](CCC(=O)O)NC(=O)[C@H](CCCCN)NC(=O)[C@H](C)NC(=O)[C@H](C)NC(=O)[C@H](C)NC(=O)[C@H](CCC(=O)O)NC(=O)[C@H](CCCNC(=N)N)NC(=O)[C@H](CCCNC(=N)N)NC(=O)[C@H](CCCNC(=N)N)NC(=O)[C@H](CCCNC(=N)N)NC(=O)[C@H](CCCNC(=N)N)NC(=O)[C@H](CCCNC(=N)N)NC(=O)[C@H](CCCNC(=N)N)NC(=O)[C@H](CCCNC(=N)N)NC(C)=O)C(=O)N[C@@H](CC(=O)O)C(=O)N[C@@H](Cc1c[nH]c2ccccc12)C(=O)NCC(=O)N1CCC[C@H]1C(=O)N[C@H](C(=O)N[C@@H](CO)C(=O)N[C@@H](CC(=O)O)C(=O)N[C@@H](CC(=O)O)C(=O)N[C@@H](CC(=O)O)C(N)=O)[C@@H](C)O [Peptide R8-RL-17] (Ac-RRRRRRRREAAAKEDDDWIDWGPTSDDD-NH2)
- Ki (CPP tagged peptides overview, SD1/2 binding affinity, mean ± SEM, n ≥ 3, read-out: Ki): 105 ± 2 nM
- Ki (Table 14, CPPs tagged peptides, read-out: Ki (nM) mean ± SEM): 105 ± 2 nM

Molecule: CC(=O)N[C@@H](C)C(=O)N[C@@H](CC(=O)O)C(=O)N[C@@H](C)C(=O)N[C@@H](CCC(=O)O)C(=O)N[C@@H](CCC(=O)O)C(=O)N[C@@H](CC(=O)O)C(=O)N[C@@H](CC(=O)O)C(=O)N[C@@H](CO)C(=O)N[C@@H](CC(=O)O)C(=O)N[C@H](C(=O)N[C@@H](Cc1c[nH]c2ccccc12)C(=O)N[C@@H](Cc1c[nH]c2ccccc12)C(=O)NCC(=O)NCC(=O)N[C@@H](C)C(N)=O)C(C)C (Ac-ADAEEDDSDVWWGGA-NH2)
- Ki (Table 3, SPOT hit validation and previously reported peptides, read-out: Ki (nM) mean ± SEM): 1530 ± 46 nM

Molecule: CC[C@H](C)[C@H](NC(=O)[C@H](Cc1ccccc1)NC(=O)[C@H](CCC(=O)O)NC(=O)[C@@H](NC(=O)[C@H](CCC(=O)O)NC(C)=O)[C@@H](C)O)C(=O)N[C@@H](C)C(=O)N[C@@H](Cc1c[nH]c2ccccc12)C(=O)NCC(=O)N1CCC[C@H]1C(=O)N[C@H](C(=O)NCC(=O)N[C@@H](CC(=O)O)C(=O)N[C@@H](CCC(=O)O)C(=O)N(C)[C@@H](CC(=O)O)C(N)=O)[C@@H](C)O (Ac-ETEFIAWGPTGDE[NMeD]-NH2)
- Ki [1]: 29 ± 1 nM

Molecule: CC[C@H](C)[C@H](NC(=O)[C@H](Cc1ccccc1)NC(=O)[C@H](CCC(=O)O)NC(=O)[C@@H](NC(=O)[C@H](CCC(=O)O)NC(=O)[C@@H](NC(C)=O)[C@@H](C)O)[C@@H](C)O)C(=O)N[C@@H](C)C(=O)N[C@@H](Cc1c[nH]c2ccccc12)C(=O)NCC(=O)N1CCC[C@H]1C(=O)N[C@H](C(=O)NCC(=O)N[C@@H](CC(=O)O)C(N)=O)[C@@H](C)O (Ac-TETEFIAWGPTGD-NH2)
- Ki (Table 5, elongation and truncation scan of AJAP-1 binding epitope, read-out: Ki (nM) mean ± SEM): 97 ± 7 nM

Molecule: CC(=O)N[C@@H](CCC(=O)O)C(=O)N[C@@H](CC(=O)O)C(=O)N[C@@H](CC(=O)O)C(=O)N[C@@H](CO)C(=O)N[C@@H](CC(=O)O)C(=O)N[C@H](C(=O)N[C@@H](Cc1c[nH]c2ccccc12)C(=O)N[C@@H](Cc1c[nH]c2ccccc12)C(=O)NCC(=O)N(C)CC(=O)N[C@@H](C)C(=O)N[C@@H](CC(=O)O)C(=O)N[C@H](C(=O)N[C@@H](CC(=O)O)C(N)=O)[C@@H](C)O)C(C)C (Ac-EDDSDVWWG[Sar]ADTD-NH2)
- Ki [3]: 161 ± 2 nM
- Ki [4]: 161 ± 2 nM

Molecule: CC(=O)N[C@@H](CCC(=O)O)C(=O)N[C@@H](CC(=O)O)C(=O)N[C@@H](CC(=O)O)C(=O)N[C@@H](CO)C(=O)N[C@@H](CC(=O)O)C(=O)N[C@H](C(=O)N[C@@H](Cc1c[nH]c2ccccc12)C(=O)N[C@@H](Cc1c[nH]c2ccccc12)C(=O)N[C@@H](CC(=O)O)C(=O)NCC(=O)N[C@@H](C)C(=O)N[C@@H](CC(=O)O)C(=O)N[C@H](C(=O)N[C@@H](CC(=O)O)C(N)=O)[C@@H](C)O)C(C)C (Ac-EDDSDVWWDGADTD-NH2)
- Ki (Table 10, deep mutational scanning validation variants of APPWT, read-out: Ki (nM) mean ± SEM): 429 ± 7 nM

Molecule: ETEFlaWGPTGDED (Ac-ETEFI[dA]WGPTGDED-NH2)
- Ki (Table 8, in μM, read-out: Ki (nM) mean ± SEM): > 6250 nM

Molecule: CC[C@H](C)[C@H](NC(=O)[C@H](Cc1ccccc1)NC(=O)[C@H](CCC(=O)O)NC(=O)[C@@H](NC(=O)[C@H](CCC(=O)O)NC(C)=O)[C@@H](C)O)C(=O)N[C@@H](C)C(=O)N[C@@H](Cc1c[nH]c2ccccc12)C(=O)NCC(=O)N[C@@H](C)C(=O)N[C@H](C(=O)NCC(=O)N[C@@H](CC(=O)O)C(=O)N[C@@H](CCC(=O)O)C(=O)N[C@@H](CC(=O)O)C(N)=O)[C@@H](C)O [ETEFIAWGATGDED] (Ac-ETEFIAWGATGDED-NH2)
- Ki [1]: 291 ± 6 nM

Molecule: CC(=O)N[C@@H](CCC(=O)O)C(=O)N[C@@H](CC(=O)O)C(=O)N[C@@H](CC(=O)O)C(=O)N[C@@H](CO)C(=O)N[C@@H](Cc1c[nH]c2ccccc12)C(=O)N[C@H](C(=O)N[C@@H](Cc1c[nH]c2ccccc12)C(=O)N[C@@H](Cc1c[nH]c2ccccc12)C(=O)NCC(=O)N(C)CC(=O)N[C@@H](C)C(=O)N[C@@H](CC(=O)O)C(=O)N[C@H](C(=O)N[C@@H](CC(=O)O)C(N)=O)[C@@H](C)O)C(C)C (Ac-EDDSWVWWG[Sar]ADTD-NH2)
- Ki [4]: 36 ± 1 nM

Molecule: CC[C@H](C)[C@H](NC(=O)[C@H](Cc1ccccc1)NC(=O)[C@H](CCC(=O)O)NC(=O)[C@@H](NC(=O)[C@H](CCC(=O)O)NC(C)=O)[C@@H](C)O)C(=O)N[C@@H](C)C(=O)N[C@@H](Cc1c[nH]c2ccccc12)C(=O)NCC(=O)N1CCC[C@H]1C(=O)N[C@H](C(=O)NCC(=O)N[C@@H](CC(=O)O)C(=O)N[C@@H](CCC(=O)O)C(=O)N[C@@H](Cc1ccc(O)cc1)C(N)=O)[C@@H](C)O
- Ki [5]: 39 ± 1 nM

Other lines, results leading:

- Ki [2]: 463 ± 10 nM
Molecule: CC[C@H](C)[C@H](NC(=O)[C@H](C)NC(=O)[C@H](Cc1c[nH]c2ccccc12)NC(=O)[C@@H]1CCCN1C(C)=O)C(=O)N[C@H](C(=O)N[C@@H](Cc1c[nH]c2ccccc12)C(=O)NCC(=O)N1CCC[C@H]1C(=O)N[C@H](C(=O)N[C@H](C(=O)N[C@@H](CO)C(N)=O)C(C)C)[C@@H](C)O)C(C)C (Ac-PWAIVWGPTVS-NH2)

- Ki [5]: 39 ± 1 nM
Molecule: CC[C@H](C)[C@H](NC(=O)[C@H](Cc1ccccc1)NC(=O)[C@H](CCC(=O)O)NC(=O)[C@@H](NC(=O)[C@H](CCC(=O)O)NC(C)=O)[C@@H](C)O)C(=O)N[C@@H](C)C(=O)N[C@@H](Cc1c[nH]c2ccccc12)C(=O)NCC(=O)N1CCC[C@H]1C(=O)N[C@H](C(=O)NCC(=O)N[C@@H](CC(=O)O)C(=O)N[C@H](C(=O)N[C@@H](CC(=O)O)C(N)=O)C(C)C)[C@@H](C)O

- Ki [3]: 655 ± 24 nM
Molecule: CC(=O)N[C@@H](CCC(=O)O)C(=O)N(C)[C@@H](CC(=O)O)C(=O)N[C@@H](CC(=O)O)C(=O)N[C@@H](CO)C(=O)N[C@@H](CC(=O)O)C(=O)N[C@H](C(=O)N[C@@H](Cc1c[nH]c2ccccc12)C(=O)N[C@@H](Cc1c[nH]c2ccccc12)C(=O)NCC(=O)NCC(=O)N[C@@H](C)C(=O)N[C@@H](CC(=O)O)C(=O)N[C@H](C(=O)N[C@@H](CC(=O)O)C(N)=O)[C@@H](C)O)C(C)C (Ac-E[NMeD]DSDVWWGGADTD-NH2)

- Ki (Table 16, ncAAs incorporated peptides, read-out: Ki (nM) mean ± SEM): 424 ± 13 nM
Molecule: CC(=O)N[C@@H](CCC(=O)O)C(=O)N[C@@H](CC(=O)O)C(=O)N[C@@H](CC(=O)O)C(=O)N[C@@H](CO)C(=O)N[C@@H](Cc1ccncc1)C(=O)N[C@H](C(=O)N[C@@H](Cc1c[nH]c2ccccc12)C(=O)N[C@@H](Cc1c[nH]c2ccccc12)C(=O)NCC(=O)NCC(=O)N[C@@H](C)C(=O)N[C@@H](CC(=O)O)C(=O)N[C@H](C(=O)N[C@@H](CC(=O)O)C(N)=O)[C@@H](C)O)C(C)C (Ac-EDDS[4Pal]VWWGGADTD-NH2)

- Ki [2]: > 62500 nM
Molecule: CC[C@H](C)[C@H](NC(=O)[C@H](C)NC(=O)[C@H](Cc1c[nH]c2ccccc12)NC(=O)[C@@H]1CCCN1C(=O)[C@H](Cc1ccc(O)cc1)NC(=O)[C@H](CCC(N)=O)NC(=O)[C@H](CO)NC(=O)[C@H](CO)NC(=O)[C@@H]1CCCN1C(C)=O)C(=O)N[C@H](C(=O)N[C@@H](Cc1c[nH]c2ccccc12)C(=O)NCC(=O)N1CCC[C@H]1C(=O)N[C@H](C(=O)N[C@H](C(=O)N[C@@H](CO)C(=O)N[C@@H](CCCNC(=N)N)C(=O)N[C@@H](CCC(=O)O)C(=O)N[C@@H](CC(=O)O)C(=O)NCC(N)=O)C(C)C)[C@@H](C)O)C(C)C (Ac-PSSQYPWAIVWGPTVSREDG-NH2)

- Ki (Table 9, cells printed in μM, read-out: Ki (nM) mean ± SEM): > 62500 nM
Molecule: CC[C@H](C)[C@H](NC(=O)[C@H](C)NC(=O)[C@H](Cc1c[nH]c2ccccc12)NC(=O)[C@@H]1CCCN1C(C)=O)C(=O)N[C@H](C(=O)N[C@@H](C)C(=O)NCC(=O)N1CCC[C@H]1C(=O)N[C@H](C(=O)N[C@H](C(=O)N[C@@H](CO)C(=O)N[C@@H](CCCNC(=N)N)C(=O)N[C@@H](CCC(=O)O)C(=O)N[C@@H](CC(=O)O)C(N)=O)C(C)C)[C@@H](C)O)C(C)C [PWAIVAGPTVSRED] (Ac-PWAIVAGPTVSRED-NH2)

From patent publication US20260193293A1, “PEPTIDES CAPABLE OF INHIBITING PROTEIN-PROTEIN INTERACTIONS AT GABAB1A SUBUNIT AND USES THEREOF” (UNIVERSITY OF COPENHAGEN, priority 2022, published 2026)
